From patent US20260138976A1 (Hoffmann-La Roche Inc., priority 2022, published 2026) come the findings set out here.

One experiment addresses T1, DGK α kinase (Homo sapiens, UniProt P23743).
T1 construct: purchased Reaction Biology Corp. (contract assay service)
The experiment can be described thus: DGKalpha kinase ADP Glo assay run by Reaction Biology Corp. It counts as biochemical. The settings on record: 2 nM kinase, 50 µM ATP, 500 μM DLG, 10-dose duplicate. Here is the method: DGK α and ζ kinases use ATP to phosphorylate the substrate 1,2-dilauroyl-sn-glycerol (DLG). ATP is converted to ADP as a result of this enzymatic reaction.
After the kinase reaction, an ATP-depletion reagent is added to terminate the kinase reaction and deplete any remaining ATP, leaving only ADP. Second, a detection reagent is added to simultaneously convert ADP to ATP and allow the newly synthesized ATP to be converted to light using a coupled luciferase/luciferin reaction.
DGK α and ζ kinase ADP Glo assays were ran by Reaction Biology Corp., 1 Great Valley Parkway, Suite 2, Malvern, 19355, PA, USA. Information provided by the service provider are the following: DGK α and ζ kinases were used at 2 nM final concentration. Reactions were carried out at 50 µM ATP. 500 μM of the substrate DLG (Dilauroyl-sn-glycerol) was used.

The subject of another experiment is MV-3 cells. Description: T-cell - TCB - MV3 killing assay. The settings on record: for Emax: Homo sapiens, MV-3, 120 h, % TCL normalized: MCSP-TCB only = neutral control, 20 μM reference compound A1 = 100%, read-out: MSCP TCB killing MV-3 cells 5 d Emax (%); for EC50: primary human T-cells + MV-3 RFP cells, MCSP-TCB 1.5 pM-5 pM, 120 hours imaging, read-out: MSCP TCB killing MV-3 cells 5 d EC50. It is filed as cell-based, human.

T1 sequence (P23743 whole entry): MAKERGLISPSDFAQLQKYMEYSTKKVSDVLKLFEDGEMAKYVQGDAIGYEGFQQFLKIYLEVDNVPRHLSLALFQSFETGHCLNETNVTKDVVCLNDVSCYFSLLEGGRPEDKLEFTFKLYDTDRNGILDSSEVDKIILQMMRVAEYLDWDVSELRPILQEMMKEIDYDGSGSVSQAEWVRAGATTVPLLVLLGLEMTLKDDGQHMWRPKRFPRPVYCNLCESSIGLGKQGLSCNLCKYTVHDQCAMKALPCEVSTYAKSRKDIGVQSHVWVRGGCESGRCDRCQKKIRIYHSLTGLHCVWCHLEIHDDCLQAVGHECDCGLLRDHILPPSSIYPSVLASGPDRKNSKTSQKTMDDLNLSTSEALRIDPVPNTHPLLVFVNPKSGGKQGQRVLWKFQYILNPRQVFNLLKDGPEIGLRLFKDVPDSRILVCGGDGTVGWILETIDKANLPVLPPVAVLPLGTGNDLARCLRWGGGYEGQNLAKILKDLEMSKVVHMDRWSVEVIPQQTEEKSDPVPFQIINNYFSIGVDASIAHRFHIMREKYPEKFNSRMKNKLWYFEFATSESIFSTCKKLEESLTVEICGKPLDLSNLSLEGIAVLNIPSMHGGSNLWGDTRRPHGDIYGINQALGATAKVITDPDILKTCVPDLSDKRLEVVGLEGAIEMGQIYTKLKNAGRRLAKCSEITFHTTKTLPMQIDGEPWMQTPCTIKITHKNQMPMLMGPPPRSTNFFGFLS

Consider `Cc1noc(-c2ccc(CN3C(=O)[C@@H](N)CS(=O)(=O)c4ccc(-c5nnc(C(C)(C)C)o5)cc43)cc2)n1` [Example 20, (3R)-3-amino-7-(5-tert-butyl-1,3,4-oxadiazol-2-yl)-5-[[4-(3-methyl-1,2,4-oxadiazol-5-yl)phenyl]methyl]-1,1-dioxo-2,3-dihydro-1λ^6,5-benzothiazepin-4-one], for which the IC50 (usually the concentration at which inhibition is half-maximal) against DGK α kinase amounted to 1410 nM.

Regarding `CC(C)(C#N)c1nnc(-c2ccc3c(c2)N(Cc2ccc(-c4ccc(C(F)(F)F)cn4)cc2)C(=O)[C@@H](N)CS3(=O)=O)o1` [Example 47], on DGK α kinase, the IC50 turned out to be 238 nM. In addition, in the experiment with MV-3 cells, the Emax (commonly the maximal effect, on the per cent scale that the assay sets) turned out to be 103% and the EC50 – broadly, the concentration needed to bring the measured effect to its halfway point – came to 280 nM.

On to `C[C@@](N)(c1nnc(-c2ccc3c(c2)N(Cc2ccc(-c4noc(C(F)(F)F)n4)cc2)C(=O)[C@@H](N)CS3(=O)=O)o1)C(F)(F)F` [Example 52, (3R)-3-amino-7-[5-[(1R)-1-amino-2,2,2-trifluoro-1-methyl-ethyl]-1,3,4-oxadiazol-2-yl]-1,1-dioxo-5-[[4-[5-(trifluoromethyl)-1,2,4-oxadiazol-3-yl]phenyl]methyl]-2,3-dihydro-1λ^6,5-benzothiazepin-4-one], for which, on DGK α kinase, the IC50 was 63.6 nM. In addition, in the experiment with MV-3 cells, the Emax was 95% and the EC50 is 52 nM.

At DGK α kinase, `C[C@](N)(c1nnc(-c2ccc3c(c2)N(Cc2ccc(-c4noc(C(F)(F)F)n4)cc2)C(=O)[C@@H](N)CS3(=O)=O)o1)C(F)(F)F` [Example 53, (3R)-3-amino-7-[5-[(1S)-1-amino-2,2,2-trifluoro-1-methyl-ethyl]-1,3,4-oxadiazol-2-yl]-1,1-dioxo-5-[[4-[5-(trifluoromethyl)-1,2,4-oxadiazol-3-yl]phenyl]methyl]-2,3-dihydro-1λ^6,5-benzothiazepin-4-one] showed an IC50 of 160 nM. In the experiment with MV-3 cells, the Emax is 98% and the EC50 came to 137 nM.

With `N[C@H]1CS(=O)(=O)c2ccc(-c3nnc(N4CCOC(F)(F)C4)o3)cc2N(Cc2ccc(-c3noc(C(F)(F)F)n3)cc2)C1=O` [Example 78, (3R)-3-amino-7-[5-(2,2-difluoromorpholin-4-yl)-1,3,4-oxadiazol-2-yl]-1,1-dioxo-5-[[4-[5-(trifluoromethyl)-1,2,4-oxadiazol-3-yl]phenyl]methyl]-2,3-dihydro-1λ^6,5-benzothiazepin-4-one], at DGK α kinase, the IC50 was determined as 105 nM. Besides, in the experiment with MV-3 cells, the Emax is 112% and the EC50 was 93 nM.

`COc1ccc(-c2ccc(CN3C(=O)[C@@H](N)CS(=O)(=O)c4ccc(-c5nnc(N(C)CC(F)(F)F)o5)cc43)cc2)cc1` [Example 81, (3R)-3-amino-5-[[4-(4-methoxyphenyl)phenyl]methyl]-7-[5-[methyl(2,2,2-trifluoroethyl)amino]-1,3,4-oxadiazol-2-yl]-1,1-dioxo-2,3-dihydro-1λ^6,5-benzothiazepin-4-one] had an IC50 against DGK α kinase of 226 nM. Also, in the experiment on MV-3 cells, the Emax was 98% and the EC50 was 343 nM.

In the case of `CC(C)(C)c1nnc(-c2ccc3c(c2)N(Cc2ccc(-n4cnc(C(F)(F)F)n4)cc2)C(=O)[C@@H](N)CS3(=O)=O)o1` [Example 91, (3R)-3-amino-7-(5-tert-butyl-1,3,4-oxadiazol-2-yl)-1,1-dioxo-5-[[4-[3-(trifluoromethyl)-1,2,4-triazol-1-yl]phenyl]methyl]-2,3-dihydro-126,5-benzothiazepin-4-one], in the experiment with MV-3 cells, the Emax stood at 96% and the EC50 was found to be 237 nM.

Turning to `CC(C)(C#N)c1nnc(-c2ccc3c(c2)N(Cc2ccc(-n4ccc(C(F)(F)F)n4)cc2)C(=O)[C@@H](N)CS3(=O)=O)o1` [Example 121, 2-[5-[(3R)-3-amino-1,1,4-trioxo-5-[[4-[3-(trifluoromethyl)pyrazol-1-yl]phenyl]methyl]-2,3-dihydro-1λ^6,5-benzothiazepin-7-yl]-1,3,4-oxadiazol-2-yl]-2-methyl-propanenitrile], in the experiment on MV-3 cells, the Emax came to 98% and the EC50 was 109 nM.

Take `CC(C)(C#N)c1nnc(-c2ccc3c(c2)N(Cc2ccc(-c4ccc(OC(F)(F)F)cn4)cc2)C(=O)[C@@H](N)CS3(=O)=O)o1` [Example 124]: the midpoint of inhibition against DGK α kinase, the IC50, lay at 23.3 nM. In addition, in the experiment with MV-3 cells, the Emax is 100% and the EC50 stood at 23 nM.

Turning to `C[C@@](N)(c1nnc(-c2ccc3c(c2)N(Cc2ccc(-n4ccc(C(F)(F)F)n4)cc2)C(=O)[C@@H](N)CS3(=O)=O)o1)C(F)(F)F` [Example 157, (3R)-3-amino-7-[5-[(1R)-1-amino-2,2,2-trifluoro-1-methyl-ethyl]-1,3,4-oxadiazol-2-yl]-1,1-dioxo-5-[[4-[3-(trifluoromethyl)pyrazol-1-yl]phenyl]methyl]-2,3-dihydro-1λ^6,5-benzothiazepin-4-one], in the experiment on MV-3 cells, the Emax amounted to 100% and the EC50 worked out at 119 nM.

With `COC(=O)N1CC2CC(c3nnc(-c4ccc5c(c4)N(Cc4ccc(-c6ccc(C(F)(F)F)cn6)cc4)C(=O)[C@@H](N)CS5(=O)=O)o3)(C2)C1` [Example 159, methyl 1-[5-[(3R)-3-amino-1,1,4-trioxo-5-[[4-[5-(trifluoromethyl)-2-pyridyl]phenyl]methyl]-2,3-dihydro-1λ^6,5-benzothiazepin-7-yl]-1,3,4-oxadiazol-2-yl]-3-azabicyclo[3.1.1]heptane-3-carboxylate], in the experiment with MV-3 cells, the Emax is 102% and the EC50 was 166 nM.

On to `CC(C)(c1nnc(-c2ccc3c(c2)N(Cc2ccc(-c4noc(C(F)(F)F)n4)cc2)C(=O)[C@@H](N)CS3(=O)=O)o1)C(F)(F)F` [Example 166], for which, in the experiment with MV-3 cells, the Emax stood at 102% and the EC50 amounted to 10 nM.
